Values quoted from earlier work as cited in patent US20040028740A1, “Steroid hormones as transfer agents” (priority 2000, published 2004).

[1] = daily doses of 200 mg and 300 mg

effect on HDL-cholesterol levels [1]: does not affect | effect on liver enzymes (ASAT, ALAT, AFOS) [1]: does not affect | effect on sex-hormone binding-globulin (SHBG) synthesis [1]: does not affect
SMILES: CC(=O)[C@H]1CC[C@H]2[C@@H]3CCC4=CC(=O)CC[C@]4(C)[C@H]3CC[C@]12C [progesterone]
effect on carbohydrate metabolism (orally administered): adversely affects neither | effect on plasma lipids (orally administered): adversely affects neither
